Data from ChEMBL document CHEMBL3994622, “Design and synthesis of new RAF kinase-inhibiting antiproliferative quinoline derivatives. Part 2: Diarylurea derivatives” (Eur J Med Chem, 2017).

Columns and labels:
Format in all cases: functional
NCI-H322M = experiment: Growth inhibition of human NCI-H322M cells assessed as cell growth at 0.003 uM incubated for 48 hrs by sulforhodamine B assay relative to control; settings: read-out: Activity
SNB-75 [1] = experiment: Growth inhibition of human SNB75 cells assessed as cell growth at 0.003 uM incubated for 48 hrs by sulforhodamine B assay relative to control; settings: SNB-75, 48 h, read-out: Activity
A498 = experiment: Growth inhibition of human A498 cells assessed as cell growth at 0.003 uM incubated for 48 hrs by sulforhodamine B assay relative to control; settings: A498, 48 h, read-out: Activity
CAKI-1 = experiment: Growth inhibition of human Caki1 cells assessed as cell growth at 0.003 uM incubated for 48 hrs by sulforhodamine B assay relative to control; settings: CAKI-1, 48 h, read-out: Activity
SR = experiment: Growth inhibition of human SR cells assessed as cell growth at 0.03 uM incubated for 48 hrs by sulforhodamine B assay relative to control; settings: read-out: Activity
NCI-H23 = experiment: Growth inhibition of human NCI-H23 cells assessed as cell growth at 0.03 uM incubated for 48 hrs by sulforhodamine B assay relative to control; settings: NCI-H23, 48 h, read-out: Activity
SNB-19 = experiment: Growth inhibition of human SNB19 cells assessed as cell growth at 0.03 uM incubated for 48 hrs by sulforhodamine B assay relative to control; settings: SNB-19, 48 h, read-out: Activity
NCI/ADR-RES = experiment: Growth inhibition of human NCI/ADR-RES cells assessed as cell growth at 0.03 uM incubated for 48 hrs by sulforhodamine B assay relative to control; settings: read-out: Activity
HCT-15 = experiment: Growth inhibition of human HCT15 cells assessed as cell growth at 0.3 uM incubated for 48 hrs by sulforhodamine B assay relative to control; settings: HCT-15, 48 h, read-out: Activity
SF-295 [2] = experiment: Growth inhibition of human SF295 cells assessed as cell growth at 0.3 uM incubated for 48 hrs by sulforhodamine B assay relative to control; settings: SF-295, 48 h, read-out: Activity
SNB-75 [3] = experiment: Growth inhibition of human SNB75 cells assessed as cell growth at 0.3 uM incubated for 48 hrs by sulforhodamine B assay relative to control; settings: SNB-75, 48 h, read-out: Activity
Malme-3M = experiment: Growth inhibition of human MALME-3M cells assessed as cell growth at 0.3 uM incubated for 48 hrs by sulforhodamine B assay relative to control; settings: read-out: Activity
RXF 393 = experiment: Growth inhibition of human RXF393 cells assessed as cell growth at 0.3 uM incubated for 48 hrs by sulforhodamine B assay relative to control; settings: RXF 393, 48 h, read-out: Activity
MCF7 = experiment: Growth inhibition of human MCF7 cells assessed as cell growth at 0.3 uM incubated for 48 hrs by sulforhodamine B assay relative to control; settings: MCF7, 48 h, read-out: Activity
HOP-92 = experiment: Growth inhibition of human HOP92 cells assessed as cell growth at 3 uM incubated for 48 hrs by sulforhodamine B assay relative to control; settings: HOP-92, 48 h, read-out: Activity
COLO 205 = experiment: Growth inhibition of human COLO205 cells assessed as cell growth at 3 uM incubated for 48 hrs by sulforhodamine B assay relative to control; settings: COLO 205, 48 h, read-out: Activity
SF-539 [4] = experiment: Growth inhibition of human SF539 cells assessed as cell growth at 3 uM incubated for 48 hrs by sulforhodamine B assay relative to control; settings: SF-539, 48 h, read-out: Activity
TK-10 = experiment: Growth inhibition of human TK10 cells assessed as cell growth at 3 uM incubated for 48 hrs by sulforhodamine B assay relative to control; settings: TK-10, 48 h, read-out: Activity
SK-MEL-28 [5] = experiment: Growth inhibition of human SK-MEL-28 cells assessed as cell growth at 30 uM incubated for 48 hrs by sulforhodamine B assay relative to control; settings: SK-MEL-28, 48 h, read-out: Activity
UACC-62 = experiment: Growth inhibition of human UACC62 cells assessed as cell growth at 30 uM incubated for 48 hrs by sulforhodamine B assay relative to control; settings: UACC-62, 48 h, read-out: Activity
CCRF-CEM = experiment: Growth inhibition of human CCRF-CEM cells assessed as cell growth at 0.01 uM incubated for 48 hrs by sulforhodamine B assay relative to control; settings: read-out: Activity
EKVX = experiment: Growth inhibition of human EKVX cells assessed as cell growth at 0.01 uM incubated for 48 hrs by sulforhodamine B assay relative to control; settings: read-out: Activity
Hs-578T = experiment: Growth inhibition of human Hs 578T cells assessed as cell growth at 0.01 uM incubated for 48 hrs by sulforhodamine B assay relative to control; settings: read-out: Activity
T47D = experiment: Growth inhibition of human T47D cells assessed as cell growth at 0.01 uM incubated for 48 hrs by sulforhodamine B assay relative to control; settings: read-out: Activity
SF-539 [6] = experiment: Growth inhibition of human SF539 cells assessed as cell growth at 0.1 uM incubated for 48 hrs by sulforhodamine B assay relative to control; settings: SF-539, 48 h, read-out: Activity
RPMI-8226 = experiment: Growth inhibition of human RPMI8226 cells assessed as cell growth at 1 uM incubated for 48 hrs by sulforhodamine B assay relative to control; settings: RPMI-8226, 48 h, read-out: Activity
U-251 = experiment: Growth inhibition of human U251 cells assessed as cell growth at 1 uM incubated for 48 hrs by sulforhodamine B assay relative to control; settings: U-251, 48 h, read-out: Activity
NCI-H522 = experiment: Growth inhibition of human NCI-H522 cells assessed as cell growth at 10 uM incubated for 48 hrs by sulforhodamine B assay relative to control; settings: NCI-H522, 48 h, read-out: Activity
HCT-116 [7] = experiment: Growth inhibition of human HCT116 cells assessed as cell growth at 10 uM incubated for 48 hrs by sulforhodamine B assay relative to control; settings: HCT-116, 48 h, read-out: Activity
SK-MEL-2 [8] = experiment: Growth inhibition of human SK-MEL-2 cells assessed as cell growth at 10 uM incubated for 48 hrs by sulforhodamine B assay relative to control; settings: SK-MEL-2, 48 h, read-out: Activity
HCT-116 [9] = experiment: Growth inhibition of human HCT116 cells assessed as cell growth at 100 uM incubated for 48 hrs by sulforhodamine B assay relative to control; settings: HCT-116, 48 h, read-out: Activity
SF-295 [10] = experiment: Growth inhibition of human SF295 cells assessed as cell growth at 100 uM incubated for 48 hrs by sulforhodamine B assay relative to control; settings: SF-295, 48 h, read-out: Activity
SK-MEL-2 [11] = experiment: Growth inhibition of human SK-MEL-2 cells assessed as cell growth at 100 uM incubated for 48 hrs by sulforhodamine B assay relative to control; settings: SK-MEL-2, 48 h, read-out: Activity
SK-MEL-28 [12] = experiment: Growth inhibition of human SK-MEL-28 cells assessed as cell growth at 100 uM incubated for 48 hrs by sulforhodamine B assay relative to control; settings: SK-MEL-28, 48 h, read-out: Activity
PC-3 = experiment: Growth inhibition of human PC3 cells assessed as cell growth at 100 uM incubated for 48 hrs by sulforhodamine B assay relative to control; settings: PC-3, 48 h, read-out: Activity

| SMILES | growth at 0.003 µM (NCI-H322M) [%] | growth at 0.003 µM (SNB-75 [1]) [%] | growth at 0.003 µM (A498) [%] | growth at 0.003 µM (CAKI-1) [%] | growth at 0.03 µM (SR) [%] | growth at 0.03 µM (NCI-H23) [%] | growth at 0.03 µM (SNB-19) [%] | growth at 0.03 µM (NCI/ADR-RES) [%] | growth at 0.3 µM (HCT-15) [%] | growth at 0.3 µM (SF-295 [2]) [%] | growth at 0.3 µM (SNB-75 [3]) [%] | growth at 0.3 µM (Malme-3M) [%] | growth at 0.3 µM (RXF 393) [%] | growth at 0.3 µM (MCF7) [%] | growth at 3 µM (HOP-92) [%] | growth at 3 µM (COLO 205) [%] | growth at 3 µM (SF-539 [4]) [%] | growth at 3 µM (TK-10) [%] | growth at 30 µM (SK-MEL-28 [5]) [%] | growth at 30 µM (UACC-62) [%] | other results |
| --- | --- | --- | --- | --- | --- | --- | --- | --- | --- | --- | --- | --- | --- | --- | --- | --- | --- | --- | --- | --- | --- |
| COc1cc2cc(Oc3ccc(NC(=O)Nc4ccc(Cl)c(C(F)(F)F)c4)cc3)c(C)nc2cc1OC | 91 | 90 | 91 | 93 | 92 | 93 | 95 | 98 | 91 | 93 | 90 | 110 | 113 | 97 | -21 | -67 | 34 | 18 | -92 | -75 | – |
| COc1cc2cc(Oc3ccc(NC(=O)Nc4ccc(Cl)c(Cl)c4)cc3)c(C)nc2cc1OC | – | – | – | – | – | – | – | – | – | – | – | – | – | – | – | – | – | – | – | – | growth at 0.01 µM (CCRF-CEM): 102%; growth at 0.01 µM (EKVX): 94%; growth at 0.01 µM (Hs-578T): 100%; growth at 0.01 µM (T47D): 100%; growth at 0.1 µM (SF-539 [6]): 103%; growth at 1 µM (RPMI-8226): 69%; growth at 1 µM (U-251): 83%; growth at 10 µM (NCI-H522): -5%; growth at 10 µM (HCT-116 [7]): 2%; growth at 10 µM (SK-MEL-2 [8]): -27%; growth at 100 µM (HCT-116 [9]): -100%; growth at 100 µM (SF-295 [10]): -56%; growth at 100 µM (SK-MEL-2 [11]): -100%; growth at 100 µM (SK-MEL-28 [12]): -77%; growth at 100 µM (PC-3): -96% |
| COc1cc2cc(Oc3ccc(NC(=O)Nc4cc(C(F)(F)F)cc(C(F)(F)F)c4)cc3)c(C)nc2cc1OC | – | – | – | – | – | – | – | – | – | – | – | – | – | – | – | – | – | – | – | – | growth at 0.01 µM (CCRF-CEM): 97%; growth at 0.01 µM (EKVX): 89%; growth at 0.01 µM (Hs-578T): 98%; growth at 0.01 µM (T47D): 86%; growth at 0.1 µM (SF-539 [6]): 94%; growth at 1 µM (RPMI-8226): 23%; growth at 1 µM (U-251): 55%; growth at 10 µM (NCI-H522): -71%; growth at 10 µM (HCT-116 [7]): -84%; growth at 10 µM (SK-MEL-2 [8]): -51%; growth at 100 µM (HCT-116 [9]): -87%; growth at 100 µM (SF-295 [10]): -84%; growth at 100 µM (SK-MEL-2 [11]): -69%; growth at 100 µM (SK-MEL-28 [12]): -73%; growth at 100 µM (PC-3): -57% |
| Cc1nc2cc(O)c(O)cc2cc1Oc1ccc(NC(=O)Nc2ccc(Cl)c(Cl)c2)cc1 | 103 | 80 | 85 | 97 | 99 | 92 | 103 | 97 | 101 | 89 | 75 | 81 | 103 | 86 | 48 | 85 | 103 | 98 | -3 | -78 | – |
